Patent US10745434B2, “Uridine phosphoramide prodrug, preparation method therefor, and medicinal uses thereof” (priority 2016, dated 2020)
Like-named read-outs stand apart in the source and are kept apart here.

Key:
[1] = Simulated gastric liquid stability; type: in vitro ADME
[2] = Human liver S9 stability; type: in vitro ADME; details: human liver S9, test concentration 1 μM
Protocol: 4. Human Liver S9 Stability Parameters (Test Concentration: 1 μM), See Table 5.

[3] = Human plasma stability; type: in vitro ADME; details: test concentration 2 μM
Protocol: 3. Human Plasma Stability (Test Concentration: 2 μM), See Table 4.

[4] = test system: HCV GT1b replicons; experiment: Anti-HCV replicon activity, HCV GT1b stable transfection replicon cell line (luciferase); type: cell-based, hepatitis C virus (HCV) genotype (GT) 1b
Protocol: (§1) A hepatitis C virus (HCV) genotype (GT) 1b stable transfection replicon cell line system was used to determine the inhibitory activity of the compounds to the HCV GT1b replicons. In this experiment, the compound 06a (GS-7977) was used as a control compound to monitor the experimental quality.
(§2) [drawing 4] 2. Compound dilution: 20 mM mother liquor was prepared by using 100% DMSO, and the compound DMSO mother liquor was diluted and added to a 96-well experiment plate. The final concentration of the DMSO was 0.5%. In in-vitro anti-HCV activity experiments and cytotoxicity experiments, all compounds had the initial concentration of 20 microns, and were diluted by 5 times of dilution. The final concentration of the DMSO of 6 concentrations were 0.5%. 3. Cell treatment: HCV-1b replicon sub-cells were added to the above 96-well cell plate (8,000 cells/well), and then placed into an incubator of 37 DEG C. and 5% CO2 for culturing for 3 days. 4. Cell activity detection: a cell growth fluorescent titration detection reagent was added to each well; after the cells were cultured for 1 hour in the incubator of 37 DEG C. and 5% CO2, a spectrophotometer detection system Envision was used to detect a Fluorescence signal value. The original data, i.e, relative fluorescence units (RFUs), was used for the calculation of the cell toxicity of the compounds. 5. Anti-HCV replicon activity detection: a luciferase light-emitting substrate bright-GLO was added to each well, and a chemiluminescence detection system Envision was used for detecting a Luminescence signal value in 5 minutes. The original data, i.e., relative light units (RLUs), was used for the calculation of the inhibitory activity of the compounds. 6. Data processing: the RFUs obtained in step 1.3 were processed into a cell activity percentage by using the following formula: […]
The RLUs obtained in step 1.4 were processed into a inhibition percentage by using the following formula:
[formula] *CPD: signal values of compound wells HPE (high percent effect): 100% effective action control well signal value, with only DMEM culture solution in the wells; The ZPE (zero percent effect): noneffective control well signal value, with 0.5% DMSO to replace the compound.
(§3) The cell activity percentage and the inhibition percentage were respectively imported into GraphPad Prism software for data processing to obtain curves corresponding to the compounds and their values of cytotoxicity (CC50) and inhibitory activity (ECD50) to the HCV replicons.

[5] = Simulated intestinal fluid stability; type: in vitro ADME; details: test concentration 10 μM
Protocol: 2. Simulated Intestinal Fluid Stability (Test Concentration: 10 μM), See Table 3: […]

[6] = Cytotoxicity in HCV-1b replicon cells (cell growth fluorescent titration); type: cell-based; details: HCV genotype 1b stably transfected replicon cells, HCV GT1b replicon cells
Protocol: as §1, §2, §3

[7] = Rat in-vivo metabolism and tissue distribution: metabolite TSL1100 in liver after intragastric administration; parameters: species or system SD rats; details: rat PO 50 mg/kg
Protocol: 18 SD rats (male, 6-9 weeks old, purchased from Vital River Animal center) were divided into 6 groups randomly, 3 rats in each group, fasted for 12 hours first before administration, freely fed with water during the fasting period. After the administration is carried out for 4 hours, the fasting was ended. 50 mg compound was precisely weighed on a balance, and 95% (0.5% of cd))/5% solutol aqueous solution was added and uniformly mixed, and subjected to ultrasonic treatment for later use. The drug delivery dose was 50 mg/kg; the drug delivery concentration was […]; and the drug delivery volume was […].
The sample collection scheme: taking blood and liver tissues after carrying out intragastric administration on rats for 1 h, 2 h, 3 h, 6 h, 12 h and 24 h.
The liver tissue sample treatment method: taking a rat tissue sample in a plastic EP tube, and adding 5 times (w:v) 1.75 mL MeOH and 5 μL 50% KOH aqueous solution together with 0.75 mL 268 mM EDTA solution to prepare a solution, uniformly mixing and taking 60 μL sample, adding a 240 μL internal standard solution for mixing, carrying out vortex oscillation for 2 minutes, and centrifuging for 10 minutes (13000 rpm and 4 DEG C.), taking 30 μL of supernate, adding 30 μL of water, carrying out vortex mixing, centrifuging at 4 DEG C., and then taking 5 μL supernate for […] analysis.
LC-MS/MS-O (API 4000) liquid mass spectrometer and chromatographic column are adopted: ACQUITY UPLC BEH C18 130 Å 1.7 μm 2.1×50 mm the composition com: and tomitamide was adopted as an internal standard compound, gradient elution analysis is carried out after the sample is fed into the sample, and the internal standard is recorded respectively, the retention time and the peak area of the to-be-tested compound and the metabolite TSL 1100, the software phoenix winnonlin 6.2. The method is analyzed by an srms quantitative detection method.

[8] = test system: HCV-1b replicon sub-cells; experiment: Cytotoxicity in HCV-1b replicon cells (cell growth fluorescent titration); type: cell-based; details: HCV GT1b replicon cells, 3 days
Protocol: as §1, §2, §3

[9] = target: T1, herg potassium ion channel (Homo sapiens, UniProt Q12809); experiment: In vitro cardiotoxicity, hERG manual patch clamp in CHO cells; type: cell-based
T1 construct: host or cells: CHO cells stably expressing hERG
Protocol: The experiment adopted CHO cells which can stably express the herg potassium ion channel from AVivaBiosciences company, wherein the cells were incubated in a constant-humidity environment at the temperature of 37 DEG C. with 5% CO2.
The compounds were tested on a Multiclamp patch-clamp amplifier at room temperature; the output signals were digitized by using a DLigital 1440 A/D-D/A board; the PCLAMP 10 software was used for recording and controlling. The minimum sealing resistance was set to 500 MOhms and the minimum specific hERG current was set to 0.4 nA for quality control.
Clampfit (V10.2, Molecular Devices), Excel 2003 and GraphPad Prism 5.0 were used for data analysis.

[10] = Hepatitis C virus, GT1B, 72 h, read-out: EC50 anti-HCV replicon activity, HCV GT1b replicons, 3 days, maximum test concentration 20 μM
[11] = read-out: EC50 anti-HCV replicon activity, HCV GT1b replicons, 3 days, maximum test concentration 20 μM
[12] = HCV GT1b replicons, 3 days, maximum test concentration 20 μM, read-out: EC50 anti-HCV replicon activity

T1 sequence (Q12809 whole entry): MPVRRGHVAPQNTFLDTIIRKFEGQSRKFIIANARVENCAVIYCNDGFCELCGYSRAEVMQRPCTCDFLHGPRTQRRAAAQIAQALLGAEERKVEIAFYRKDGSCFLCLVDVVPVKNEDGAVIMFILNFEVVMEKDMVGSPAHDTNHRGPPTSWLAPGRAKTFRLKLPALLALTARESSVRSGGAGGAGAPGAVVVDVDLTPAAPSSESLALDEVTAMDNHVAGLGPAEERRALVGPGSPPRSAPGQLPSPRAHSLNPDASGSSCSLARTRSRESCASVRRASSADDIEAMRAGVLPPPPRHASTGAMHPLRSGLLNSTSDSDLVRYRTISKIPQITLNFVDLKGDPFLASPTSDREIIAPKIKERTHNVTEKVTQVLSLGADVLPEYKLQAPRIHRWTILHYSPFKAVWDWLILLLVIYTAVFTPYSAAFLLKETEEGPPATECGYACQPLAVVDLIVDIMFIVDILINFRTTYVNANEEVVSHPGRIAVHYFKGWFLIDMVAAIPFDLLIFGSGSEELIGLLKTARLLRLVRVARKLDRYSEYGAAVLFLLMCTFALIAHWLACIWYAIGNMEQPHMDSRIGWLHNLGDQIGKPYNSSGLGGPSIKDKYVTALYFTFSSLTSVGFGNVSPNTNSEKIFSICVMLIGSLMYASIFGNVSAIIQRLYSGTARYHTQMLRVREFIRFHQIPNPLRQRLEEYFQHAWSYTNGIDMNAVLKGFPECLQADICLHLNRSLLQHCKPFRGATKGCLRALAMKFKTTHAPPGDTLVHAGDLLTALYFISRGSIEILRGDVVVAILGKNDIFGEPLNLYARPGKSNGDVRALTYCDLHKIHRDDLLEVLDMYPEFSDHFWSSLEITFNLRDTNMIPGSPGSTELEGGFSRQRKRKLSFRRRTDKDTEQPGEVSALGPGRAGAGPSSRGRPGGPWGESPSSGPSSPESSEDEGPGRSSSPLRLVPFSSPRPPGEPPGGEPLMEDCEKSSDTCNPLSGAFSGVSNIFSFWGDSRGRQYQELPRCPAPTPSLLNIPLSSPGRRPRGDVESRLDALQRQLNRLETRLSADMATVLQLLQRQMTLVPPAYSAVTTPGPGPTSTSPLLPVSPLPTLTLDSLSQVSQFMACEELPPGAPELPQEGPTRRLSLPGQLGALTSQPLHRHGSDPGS

## COc1ccc2[nH]c([S+]([O-])Cc3ncc(C)c(OC)c3C)nc2c1 (centres unmarked) [Omeprazole]
[1]; 20 μM
  % 0 h residual percentage: 100%
  % 1 h residual percentage: 5.24%
  % 2 h residual percentage: 2.76%
  % 6 h residual percentage: 0.20%
  % 24 h residual percentage: 0.00%

## CCOc1ccc2ccc(=O)oc2c1 [7-Ethoxycumarin]
[2]
  CLlint(s9): 194.2 µL/min/mg
  half-life at 1 μM: 0.06 h
  Remaining % (NCF = 1 h): 103.3%
  Remaining % (T = 1 h): 0.0%
[2]; scaled per kg
  CLlint(s9): 41.01 mL/h/kg

## Cc1ccccc1COP(=O)(N[C@@H](C)C(=O)OC(C)C)OC[C@H]1O[C@@H](n2ccc(=O)[nH]c2=O)[C@](C)(F)[C@@H]1O (single isomer, unassigned) [Unresolved enantiomer 02 of patent compounds in 2013]
[3]
  % 0 min residual percentage: 100%
  % 10 min residual percentage: 73.3%
  % 30 min residual percentage: 69.5%
  % 60 min residual percentage: 62.8%
  % 120 min residual percentage: 58.8%
[2]
  CLlint(s9): 72.6 µL/min/mg
  half-life at 1 μM: 0.158 h
  Remaining % (NCF = 1 h): 64.7%
  Remaining % (T = 1 h): 1.1%
[2]; scaled per kg
  CLlint(s9): 15.34 mL/h/kg
[1]; test concentration 10 μM
  % 0 h residual percentage: 100%
  % 1 h residual percentage: 82.70%
  % 2 h residual percentage: 82.45%
  % 6 h residual percentage: 74.80%
  % 24 h residual percentage: 41.56%
[4]; [10]
  EC50: 10 to 20 µM
[4]; [11]
  EC50: 17.7 µM
[5]
  % 0 h residual percentage: 100%
  % 1 h residual percentage: 0.63%
  % 2 h residual percentage: 0.08%
  % 6 h residual percentage: 0.00%
  % 24 h residual percentage: 0.00%
[6]
  CC50 at 3 days: > 20 µM

## O=C(O)CCCc1ccc(N(CCCl)CCCl)cc1 [Chlorambucil]
[5]
  % 0 h residual percentage: 100%
  % 1 h residual percentage: 43.83%
  % 2 h residual percentage: 3.91%
  % 6 h residual percentage: 0.00%
  % 24 h residual percentage: 0.00%

## CC(C)OC(=O)[C@H](C)NP(=O)(OC[C@H]1O[C@@H](n2ccc(=O)[nH]c2=O)[C@](C)(F)[C@@H]1O)Oc1ccccc1 (some centres unmarked) [Patent compound 06 in 2008]
[3]
  % 0 min residual percentage: 100%
  % 10 min residual percentage: 78.8%
  % 30 min residual percentage: 70.9%
  % 60 min residual percentage: 72.0%
  % 120 min residual percentage: 65.3%
[2]
  CLlint(s9): 6.0 µL/min/mg
  half-life at 1 μM: 1.92 h
  Remaining % (NCF = 1 h): 64.0%
  Remaining % (T = 1 h): 58.6%
[2]; scaled per kg
  CLlint(s9): 1.27 mL/h/kg
[1]; test concentration 10 μM
  % 0 h residual percentage: 100%
  % 1 h residual percentage: 95.19%
  % 2 h residual percentage: 98.47%
  % 6 h residual percentage: 84.08%
  % 24 h residual percentage: 49.36%
[4]; [10]
  EC50: < 10 µM
[4]; [11]
  EC50: 9.82 µM
[5]
  % 0 h residual percentage: 100%
  % 1 h residual percentage: 0.00%
  % 2 h residual percentage: 0.00%
  % 6 h residual percentage: 0.00%
  % 24 h residual percentage: 0.00%
[6]
  CC50 at 3 days: > 20 µM

## CC(C)[N+](C)(CCOC(=O)C1c2ccccc2Oc2ccccc21)C(C)C [Propantheline]
[3]
  % 0 min residual percentage: 100%
  % 10 min residual percentage: 53.3%
  % 30 min residual percentage: 14.3%
  % 60 min residual percentage: 2.2%
  % 120 min residual percentage: 0.0%

## CC(C)OC(=O)[C@H](C)NP(=O)(OCc1ccccc1)OC[C@H]1O[C@@H](n2ccc(=O)[nH]c2=O)[C@](C)(F)[C@@H]1O (single isomer, unassigned) [Compound 01b]
[7]
  AUCExtra: 6.61%
  AUMCExtra: 19.8%
  Tlast: 12.0 h
[4]; [12]
  EC50: 9.15 µM
[8]
  CC50: > 20 µM

## COc1ccccc1COP(=O)(N[C@@H](C)C(=O)OC(C)C)OC[C@H]1O[C@@H](n2ccc(=O)[nH]c2=O)[C@](C)(F)[C@@H]1O (some centres unmarked) [Compound 03]
[4]; [10]
  EC50: > 20 µM
[6]
  CC50 at 3 days: > 20 µM

## COc1ccc(COP(=O)(N[C@@H](C)C(=O)OC(C)C)OC[C@H]2O[C@@H](n3ccc(=O)[nH]c3=O)[C@](C)(F)[C@@H]2O)cc1 (some centres unmarked) [Compound 05]
[4]; [10]
  EC50: > 20 µM
[6]
  CC50 at 3 days: > 20 µM

## CC(C)OC(=O)[C@H](C)N[P@](=O)(OC[C@H]1O[C@@H](n2ccc(=O)[nH]c2=O)[C@](C)(F)[C@@H]1O)Oc1ccccc1 [Patent compound 06a in 2010]
[4]; [10]
  EC50: 0.719 µM
[9]
  IC50: > 10 µM
[6]
  CC50 at 3 days: > 3 µM

## CC(C)OC(=O)[C@H](C)NP(=O)(OCc1ccccc1)OC[C@H]1O[C@@H](n2ccc(=O)[nH]c2=O)[C@](C)(F)[C@@H]1O (single isomer, unassigned) [Compound 01a]
[7]
  AUCExtra: 4.74%
  AUMCExtra: 18.9%
  Tlast: 24.0 h
[4]; [12]
  EC50: 0.301 µM
[8]
  CC50: > 20 µM

## CC(C)OC(=O)C(C)NP(=O)(OCc1ccccc1)OCC1OC(n2ccc(=O)[nH]c2=O)C(C)(F)C1O (mixture of isomers) [Compound 01]
[3]
  % 0 min residual percentage: 100%
  % 10 min residual percentage: 98.9%
  % 30 min residual percentage: 81.7%
  % 60 min residual percentage: 80.9%
  % 120 min residual percentage: 74.9%
[2]
  CLlint(s9): 7.2 µL/min/mg
  T1/2: 1.61 h
  Remaining % (NCF = 1 h): 67.4%
  Remaining % (T = 1 h): 56.2%
[2]; scaled per kg
  CLlint(s9): 1.51 mL/h/kg
[1]; test concentration 10 μM
  % 0 h residual percentage: 100%
  % 1 h residual percentage: 96.81%
  % 2 h residual percentage: 105.99%
  % 6 h residual percentage: 100.76%
  % 24 h residual percentage: 71.32%
[4]; [12]
  EC50: 6.12 µM
[5]
  % 0 h residual percentage: 100%
  % 1 h residual percentage: 1.69%
  % 2 h residual percentage: 0.08%
  % 6 h residual percentage: 0.00%
  % 24 h residual percentage: 0.00%
[8]
  CC50: > 20 µM

## Cc1ccc(COP(=O)(N[C@@H](C)C(=O)OC(C)C)OC[C@H]2O[C@@H](n3ccc(=O)[nH]c3=O)[C@](C)(F)[C@@H]2O)cc1 (some centres unmarked) [Compound 04]
[4]; [10]
  EC50: 10 to 20 µM
[4]; [11]
  EC50: 15.2 µM
[6]
  CC50 at 3 days: > 20 µM

## O=c1ccc2ccc(O)cc2o1 [7-Hydroxycoumarin]
[2]
  CLlint(s9): 7.2 µL/min/mg
  half-life at 1 μM: 1.61 h
  Remaining % (NCF = 1 h): 67.4%
  Remaining % (T = 1 h): 56.2%
[2]; scaled per kg
  CLlint(s9): 1.51 mL/h/kg
